Data reported in patent US20240067645A1, “HETEROCYCLIC COMPOUND AS DIACYLGLYCEROL KINASE INHIBITOR AND USE THEREOF” (LG CHEM, LTD., priority 2020, published 2024).

Target: DGKα (Homo sapiens (Human), UniProt P23743)
Test: Measurement of inhibitory effect against DGKα enzyme (ADP-Glo)
Type: biochemical
Details: not given
Procedure: Experimental Example: Measurement of Inhibitory Effect Against DGKα Enzyme
First, 3×OAG (3 mM)/ATP (0.45 mM) substrate solution was prepared from 1× substrate assay buffer (40 mM MOPS (pH 7.2), 20 mM MgCl2, 1 mM DTT, 0.4 mM CaCl2), 3 mM sodium deoxycholate, 100 mM NaCl, 0.1 mg/mL BSA, 0.12% NP-40), and vortexed thoroughly for 3 minutes to induce detergent-lipid micelle formation. Then, 3×DGKα (7.5 nM) enzyme solution was prepared from 2× enzyme assay buffer (80 mM MOPS (pH 7.2), 2 mM DTT, 200 mM NaCl, 0.2 mg/mL BSA) and vortexed for a short time.
After preparing the above two solutions, a half-area opaque 96-well assay plate was prepared, and 10 μL of 3× diluted compound solution (30 μM to 0 μM) was transferred to each well. Next, 10 μL of 3×DGK enzyme solution was transferred to the same plate, mixed by pipetting, and then 10 μL of 3×OAG/ATP substrate solution was added to the assay plate and mixed well. The plate was incubated at room temperature for 20 minutes for the enzyme reaction. Next, 15 μL of ADP-Glo reagent was added to each well and mixed by pipetting, followed by incubating the plate at room temperature for 40 minutes to deplete the remaining ATPs. After this step, 30 μL of kinase detection reagent was added and mixed, and the plate was incubated at room temperature for an additional 20 minutes and luminescence was measured by Envision to calculate the IC50 value of each compound.
The measurement results are represented in Table 1 (+: IC50>5 μM, ++: 5 μM>IC50>300 nM, +++: IC50<300 nM).

Chain of DGKα (P23743 whole entry, species assumed): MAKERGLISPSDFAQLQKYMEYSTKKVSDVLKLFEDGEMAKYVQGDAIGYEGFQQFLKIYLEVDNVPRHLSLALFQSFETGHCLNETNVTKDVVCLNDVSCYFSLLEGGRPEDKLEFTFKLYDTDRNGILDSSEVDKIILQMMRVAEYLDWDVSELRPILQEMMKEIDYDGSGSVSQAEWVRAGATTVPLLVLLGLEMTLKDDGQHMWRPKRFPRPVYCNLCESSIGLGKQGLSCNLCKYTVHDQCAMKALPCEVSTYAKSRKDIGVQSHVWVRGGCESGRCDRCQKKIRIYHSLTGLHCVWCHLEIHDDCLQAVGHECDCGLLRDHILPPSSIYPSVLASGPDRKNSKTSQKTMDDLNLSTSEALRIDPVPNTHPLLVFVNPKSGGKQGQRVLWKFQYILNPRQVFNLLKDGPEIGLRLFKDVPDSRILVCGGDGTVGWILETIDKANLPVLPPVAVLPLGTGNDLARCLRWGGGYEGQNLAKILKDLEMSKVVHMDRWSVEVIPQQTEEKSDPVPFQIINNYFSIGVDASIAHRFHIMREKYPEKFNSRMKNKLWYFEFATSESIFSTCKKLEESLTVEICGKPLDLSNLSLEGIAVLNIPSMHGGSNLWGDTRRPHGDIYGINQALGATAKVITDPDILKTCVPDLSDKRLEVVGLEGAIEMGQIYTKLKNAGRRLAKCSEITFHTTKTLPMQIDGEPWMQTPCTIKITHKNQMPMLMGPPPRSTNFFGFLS

Compound | IC50 [nM]
Cn1c(=O)c(=O)n([C@H]2C[C@H]3CC[C@@H](C2)N3Cc2ccc(OC(F)(F)F)cc2)c2ncc(Cl)cc21 [Example 57, 7-chloro-1-methyl-4-((1R,3r,5S)-8-(4-(trifluoromethoxy)benzyl)-8-azabicyclo[3.2.1]octan-3-yl)-1,4-dihydropyrido[2,3-b]pyrazine-2,3-dione] | 300 to 5000

Same assay, conditions: DGKα enzyme, ADP-Glo luminescence, OAG/ATP substrate, 20 min room temperature; read-out: IC50

Compound | IC50 [nM]
Cc1ccc2c(n1)n(C1CCN(Cc3ccccc3Cl)CC1)c(=O)c(=O)n2C [Example 12, 4-(1-(2-chlorobenzyl)piperidin-4-yl)-1,6-dimethyl-1,4-dihydropyrido[2,3-b]pyrazine-2,3-dione] | 300 to 5000
Cc1nc2c(cc1Cl)n(C)c(=O)c(=O)n2C1CCN(Cc2ccc(OC(F)(F)F)cc2)CC1 [Example 50, 7-chloro-1,6-dimethyl-4-(1-(4-(trifluoromethoxy)benzyl)piperidin-4-yl)-1,4-dihydropyrido[2,3-b]pyrazine-2,3-dione] | < 300
Cn1c(=O)c(=O)n(C2CCN(Cc3ccc(OC(F)(F)F)cc3)CC2)c2ncccc21 [Example 1, methyl-4-(1-(4-(trifluoromethoxy)benzyl)piperidin-4-yl)-1,4-dihydropyrido[2,3-b]pyrazine-2,3-dione] | < 300
Cn1c(=O)c(=O)n(C2CCN(Cc3cccc4nccnc34)CC2)c2ncc(Cl)cc21 [Example 33, 7-chloro-1-methyl-4-(1-(quinoxalin-5-ylmethyl)piperidin-4-yl)-1,4-dihydropyrido[2,3-b]pyrazine-2,3-dione] | 300 to 5000
CC(C)Cn1c(=O)c(=O)n(C2CCN(Cc3ccc(OC(F)(F)F)cc3)CC2)c2ncccc21 [Example 4, isobutyl-4-(1-(4-(trifluoromethoxy)benzyl)piperidin-4-yl)-1,4-dihydropyrido[2,3-b]pyrazine-2,3-dione] | > 5000
CC(C)n1cc(CN2CCC(n3c(=O)c(=O)n(C)c4cc(Cl)cnc43)CC2)cn1 [Example 52, 7-chloro-4-(1-((1-isopropyl-1H-pyrazol-4-yl)methyl)piperidin-4-yl)-1-methyl-1,4-dihydropyrido[2,3-b]pyrazine-2,3-dione] | > 5000
Cn1c(=O)c(=O)n(C2CCN(Cc3ccc(OC(F)(F)F)cc3)CC2)c2ncc(-c3ccccc3F)cc21 [Example 39, 7-(2-fluorophenyl)-1-methyl-4-(1-(4-(trifluoromethoxy)benzyl)piperidin-4-yl)-1,4-dihydropyrido[2,3-b]pyrazine-2,3-dione] | < 300
Cn1c(=O)c(=O)n(C2CCN(Cc3ccc4c(c3)OCCO4)CC2)c2ncc(Cl)cc21 [Example 46, 7-chloro-4-(1-((2,3-dihydrobenzo[b][1,4]dioxin-6-yl)methyl)piperidin-4-yl)-1-methyl-1,4-dihydropyrido[2,3-b]pyrazine-2,3-dione] | 300 to 5000
Cc1ccc2c(n1)n(C1CCN(Cc3c(C)n(C)c4ccccc34)CC1)c(=O)c(=O)n2C [Example 7, 4-(1-((1,2-dimethyl-1H-indol-3-yl)methyl)piperidin-4-yl)-1,6-dimethyl-1,4-dihydropyrido[2,3-b]pyrazine-2,3-dione] | > 5000
Cn1c(=O)c(=O)n(C2CCN(Cc3ccc(OC(F)(F)F)cc3)CC2)c2ncc(C(N)=O)cc21 [Example 66, 1-methyl-2,3-dioxo-4-(1-(4-(trifluoromethoxy)benzyl)piperidin-4-yl)-1,2,3,4-tetrahydropyrido[2,3-b]pyrazine-7-carboxamide] | < 300
Cc1ccc2c(n1)n(C1CCN(Cc3ccnc4ccccc34)CC1)c(=O)c(=O)n2C [Example 9, 1,6-dimethyl-4-(1-(quinolin-4-ylmethyl)piperidin-4-yl)-1,4-dihydropyrido[2,3-b]pyrazine-2,3-dione] | 300 to 5000
Cn1c(=O)c(=O)n(C2CCN(Cc3cccc(Cl)c3)CC2)c2nc(C#N)ccc21 [Example 25, 4-(1-(3-chlorobenzyl)piperidin-4-yl)-1-methyl-2,3-dioxo-1,2,3,4-tetrahydropyrido[2,3-b]pyrazine-6-carbonitrile] | 300 to 5000
Cc1ccc2c(n1)n(C1CCN(Cc3cc4ccccc4nc3Cl)CC1)c(=O)c(=O)n2C [Example 6, 4-(1-((2-chloroquinolin-3-yl)methyl)piperidin-4-yl)-1,6-dimethyl-1,4-dihydropyrido[2,3-b]pyrazine-2,3-dione] | 300 to 5000
CN(C)CCNC(=O)c1cnc2c(c1)n(C)c(=O)c(=O)n2C1CCN(Cc2ccc(OC(F)(F)F)cc2)CC1 [Example 63, N-(2-(dimethylamino)ethyl)-1-methyl-2,3-dioxo-4-(1-(4-(trifluoromethoxy)benzyl)piperidin-4-yl)-1,2,3,4-tetrahydropyrido[2,3-b]pyrazine-7-carboxamide] | > 5000
Cc1ccc2c(n1)n(C1CCN(Cc3ccc4c(ccn4C)c3)CC1)c(=O)c(=O)n2C [Example 8, 1,6-dimethyl-4-(1-((1-methyl-1H-indol-5-yl)methyl)piperidin-4-yl)-1,4-dihydropyrido[2,3-b]pyrazine-2,3-dione] | 300 to 5000
Cn1c(=O)c(=O)n(C2CCN(Cc3cccc4ccccc34)CC2)c2nc(C#N)ccc21 [Example 26, 1-methyl-4-(1-(naphthalen-1-ylmethyl)piperidin-4-yl)-2,3-dioxo-1,2,3,4-tetrahydropyrido[2,3-b]pyrazine-6-carbonitrile] | 300 to 5000
Cn1c(=O)c(=O)n(C2CCN(Cc3ccc(OC(F)(F)F)cc3)CC2)c2ncc(Cl)cc21 [Example 28, 7-chloro-1-methyl-4-(1-(4-(trifluoromethoxy)benzyl)piperidin-4-yl)-1,4-dihydropyrido[2,3-b]pyrazine-2,3-dione] | < 300
Cn1c(=O)c(=O)n(C2CCN(Cc3cccc(C(F)(F)F)c3)CC2)c2ncc(Cl)cc21 [Example 30, 7-chloro-1-methyl-4-(1-(3-(trifluoromethyl)benzyl)piperidin-4-yl)-1,4-dihydropyrido[2,3-b]pyrazine-2,3-dione] | < 300
Cc1ccc2c(n1)n(C1CCN(Cc3ccc4ccccc4c3)CC1)c(=O)c(=O)n2C [Example 19, 1,6-dimethyl-4-(1-(naphthalen-2-ylmethyl)piperidin-4-yl)-1,4-dihydropyrido[2,3-b]pyrazine-2,3-dione] | 300 to 5000
Cn1c(=O)c(=O)n(C2CCN(Cc3ccc(OC(F)(F)F)cc3)CC2)c2nc(C#N)ccc21 [Example 11, 1-methyl-2,3-dioxo-4-(1-(4-(trifluoromethoxy)benzyl)piperidin-4-yl)-1,2,3,4-tetrahydropyrido[2,3-b]pyrazine-6-carbonitrile] | 300 to 5000
CC(=O)c1cnc2c(c1)n(C)c(=O)c(=O)n2C1CCN(Cc2ccc(OC(F)(F)F)cc2)CC1 [Example 48, 7-acetyl-1-methyl-4-(1-(4-(trifluoromethoxy)benzyl)piperidin-4-yl)-1,4-dihydropyrido[2,3-b]pyrazine-2,3-dione] | < 300
Cn1c(=O)c(=O)n(C2CCN(Cc3cccc4ccccc34)CC2)c2ncc(Cl)cc21 [Example 29, 7-chloro-1-methyl-4-(1-(naphthalen-1-ylmethyl)piperidin-4-yl)-1,4-dihydropyrido[2,3-b]pyrazine-2,3-dione] | < 300
Cn1c(=O)c(=O)n(C2CCN(Cc3cccc4c3CCCC4)CC2)c2ncc(Cl)cc21 [Example 37, 7-chloro-1-methyl-4-(1-((5,6,7,8-tetrahydronaphthalen-1-yl)methyl)piperidin-4-yl)-1,4-dihydropyrido[2,3-b]pyrazine-2,3-dione] | < 300
Cc1cnc2c(c1)n(C)c(=O)c(=O)n2C1CCN(Cc2ccc(OC(F)(F)F)cc2)CC1 [Example 61, 1,7-dimethyl-4-(1-(4-(trifluoromethoxy)benzyl)piperidin-4-yl)-1,4-dihydropyrido[2,3-b]pyrazine-2,3-dione] | < 300
Cn1c(=O)c(=O)n(C2CCN(Cc3ccc(OC(F)(F)F)cc3)CC2)c2nc(C#N)c(C3CC3)cc21 [Example 44, 7-cyclopropyl-1-methyl-2,3-dioxo-4-(1-(4-(trifluoromethoxy)benzyl)piperidin-4-yl)-1,2,3,4-tetrahydropyrido[2,3-b]pyrazine-6-carbonitrile] | 300 to 5000
Cn1c(=O)c(=O)n(C2CCN(Cc3ccc(OC(F)(F)F)cc3)CC2)c2ncc(C#N)cc21 [Example 47, 1-methyl-2,3-dioxo-4-(1-(4-(trifluoromethoxy)benzyl)piperidin-4-yl)-1,2,3,4-tetrahydropyrido[2,3-b]pyrazine-7-carbonitrile] | 300 to 5000
Cc1cnc2c(c1)n(C)c(=O)c(=O)n2C1CCN(Cc2cccc(Cl)c2)CC1 [Example 67, 4-(1-(3-chlorobenzyl)piperidin-4-yl)-1,7-dimethyl-1,4-dihydropyrido[2,3-b]pyrazine-2,3-dione] | < 300
Cn1c(=O)c(=O)n(C2CCN(Cc3cccc(Cl)c3)CC2)c2ncccc21 [Example 22, 4-(1-(3-chlorobenzyl)piperidin-4-yl)-1-methyl-1,4-dihydropyrido[2,3-b]pyrazine-2,3-dione] | < 300
Cc1ccc2c(n1)n(C1CCN(Cc3cccc(F)n3)CC1)c(=O)c(=O)n2C [Example 16, 4-(1-((6-fluoropyridin-2-yl)methyl)piperidin-4-yl)-1,6-dimethyl-1,4-dihydropyrido[2,3-b]pyrazine-2,3-dione] | > 5000
